Legend:
[1] = rats, 2020, cited from earlier work
[2] = Identification of metabolites of PG in vivo (plasma, bile, urine, feces); set-up: species or system rat; conditions: rats
Protocol: Nine Sprague–Dawley (SD) male rats (200 ± 20 g) were purchased from Beijing Vital River Laboratory Animal Technology Co., Ltd. (license number: SCXK (Beijing) 2016-0006).
The plasma samples were the same as in the pharmacokinetic experiment; PGI (9 mg kg^−1) was injected into the tail vein of three rats to collect the bile samples for 0–6 h, and saline (9 mg kg^−1) was injected into the tail vein of three rats to collect the normal bile samples. PGI (9 mg kg^−1) was injected into the tail vein of three rats to collect urine (0–4 h) samples and feces (0–6 h) samples after collecting the blank urine and feces samples. All samples were stored at −80℃ for further analysis.
(§1) Plasma samples: 40 μl of plasma samples at different time points were taken and mixed together in a 2 ml centrifuge tube; 1,280 μl of ice acetonitrile was added. The mixture was vortexed for 3 min and centrifuged at 13,200 × g under 4℃ for 10 min. The supernatant was transferred to another centrifuge tube and dried with nitrogen, re-dissolved with 60 μl of 80% methanol-H2O (v/v). For further LC-MS analysis, 3 μl of the supernatant was injected.
Bile samples: 100 μl of bile sample was taken using a 0.22 μm filter, the mixture was vortexed for 3 min, and centrifuged at 13200 × g under 4℃ for 10 min. For further LC-MS analysis, 3 μl of the supernatant was injected.
Fecal samples: 100 mg of the sample was weighed into a 1.5 ml centrifuge tube, 400 μl of ice acetonitrile was added, and the mixture was vortexed for 3 min and centrifuged at 13,200 × g under 4℃ for 10 min. For further LC-MS analysis, 3 μl of the supernatant was injected.
as §1, with “Urine sample: 600” for “Plasma samples: 40”, “urine sample was” for “plasma samples at different time points were”, “taken out,” for “taken”, “2,400” for “mixed together in a 2 ml centrifuge tube; 1,280”
An ultrahigh-performance liquid chromatography-mass spectrometer (Waters, United States) was performed for separation and detection. A Waters ACQUITY UPLC HSS T3 column (2.1 × 100 mm, 1.8 μm) was employed at 30℃ with a flow rate of 0.3 ml min^−1. The mobile phase consisted of acetonitrile (B) and water containing 0.1% FA ([…]). The following linear gradient was used: 0–0.5 min: 5–7% B; 0.5–2.5 min: 7–8.8% B; 2.5–5.5 min: 8.8–16.9% B; 5.5–14 min: 16.9–24.7% B; 14–23 min: 24.7–52% B; and 23–30 min: 52–95% B.
DDA was performed using the Q Exactive™ hybrid quadrupole–Orbitrap mass spectrometer both in negative and positive mode. […]

[3] = Pharmacokinetic study of PGI alone and after repeated GAO in rats; type: in vivo, rat; conditions: for clearance / AUC(0-inf) / AUC(0-t) / half-life: male, SD, rat, plasma, iv, 9 mg/kg, n = 8; for clearance: CL
Protocol: A total of 100 μl of rat plasma sample and 10 μl of polydatin solution (IS) were mixed with 400 μl of ice acetonitrile; the mixture was vortexed for 3 min and centrifuged at 13,200 × g under 4℃ for 20 min. The supernatant was transferred to another centrifuge tube and dry with nitrogen, re-dissolved with 100 μl of 80% methanol-H2O (v/v). The mixture was vortexed for 3 min and centrifuged at 13,200 × g under 4℃ for 20 min. For further LC-MS analysis, 3 μl of the supernatant was injected.
An ultrahigh-performance liquid chromatography-mass spectrometer (Waters, United States) was used for separation and detection. A Waters ACQUITY UPLC HSS T3 column (2.1 × 100 mm, 1.8 μm) was employed at 35℃ with a flow rate of 0.3 ml min^−1. The mobile phase consisted of acetonitrile (A) and water containing 0.1% FA (B). The following linear gradient was used: 0–4 min: 25–95% A; 4–4.5 min: 95–25% A; and 4.5–6 min: 25% A.
MRM was performed using QQQ-MS model Xevo TQ-S (Waters, United States). ESI was set as follows: capillary voltage, 3.0 kV; desolvation temperature, 450℃; and desolvation gas flow, 900 L/h (N2, purity 99.9%). The MRM transitions (precursor → product) of PG and polydatin (IS) were m/z 405.16 → m/z 243.18 and m/z 389.16 → m/z 227.20, respectively. The cone voltage of PG and polydatin were 80 and 84 V, respectively. The collision energy of PG and polydatin was 30 and 20 V, respectively.
Sixteen SD male rats (200 ± 20 g) were purchased from Beijing Vital River Laboratory Animal Technology Co., Ltd. (license number: SCXK (Beijing) 2016-0006). All rats were reared adaptively in a suitable environment for 1 week with freely available food and water. The temperature was maintained at 22℃, and the light was maintained for 12 h in a day.
The rats were randomly divided into two groups, viz., the control group (n = 8) and the combined group (n = 8). For the control group, 9 mg kg^−1 of PGI was injected into the tail vein of rats, whereas the same dosage of PGI was injected after 14 days of repeated GAO ingestion (51 mg kg^−1) for the combined group. The dosage administered to rats is in accordance with clinical dosage. After administration, blood samples were obtained from each rat at 0.03, 0.08, 0.16, 0.33, 0.5, 0.75, 1, 2, 3, 4, and 6 h. The blood sample was centrifuged at 6,600 × g under 4℃ for 10 min, and the supernatant was stored at −80℃ for further analysis.
Pharmacokinetic parameters were calculated under a noncompartmental model using Drug and Statistics 1.0 (DAS 1.0) software.

[4] = after 14 days repeated GAO, p < 0.05
[5] = Combined group: PGI 9 mg kg−1 tail vein after 14 days of repeated GAO 51 mg kg−1, rats
[6] = Control group: PGI 9 mg kg−1 tail vein, rats

metabolites in fecal samples [2]: No metabolites were detected
number of metabolites identified in bile ([2]; PGI 9 mg kg−1 tail vein, bile 0–6 h, all phase II): five
number of metabolites identified in plasma ([2]; PGI 9 mg kg−1 tail vein, all phase II metabolites): four
change of AUC 0-t of PG, combined group vs control [3, 4]: significantly increased
change of AUC 0-∞ of PG, combined group vs control [3, 4]: significantly increased
change of T1/2 of PG, combined group vs control [3, 4]: prolonged
change of clearance of PG, combined group vs control [3, 4]: significantly decreased
clearance [3, 5]: 30.4 mL/min/kg
clearance [3, 6]: 46.2 mL/min/kg
AUC(0-inf) [3, 5]: 5010 ± 686 ng·h/mL
AUC(0-t) [3, 5]: 4900 ± 606 ng·h/mL
half-life [3, 5]: 1.74 ± 0.802 h
AUC(0-inf) [3, 6]: 3320 ± 525 ng·h/mL
AUC(0-t) [3, 6]: 3310 ± 517 ng·h/mL
half-life [3, 6]: 1.01 ± 0.409 h
Compound: OC[C@H]1O[C@@H](Oc2cc(/C=C/c3cc(O)cc(O)c3)ccc2O)[C@H](O)[C@@H](O)[C@@H]1O [PG, Piceatannol-3′-O-β-D-glucopyranoside]
excretion of the prototype of PG ([1]; 40.0 mg kg−1 PG, tail vein and intragastric administration, ref Xu): mainly excreted through urine
distribution ([1]; ref Chai, 2019, Xu): widely distributed
elimination rate ([1]; ref Chai, 2019, Xu): fast elimination rate
excretion ([1]; ref Chai, 2019, Xu): mainly excreted by urine
kinetics ([1]; ref Chai, 2019, Xu): linear kinetics
metabolic route of PG in vivo ([2]; PGI 9 mg kg−1 tail vein): mainly undergoes a phase II binding reaction mediated by UGT and SULT
